This note sets out measurements from a melting point compilation (Tetko et al.; mined from patent text by program, amines drawn as free bases though some values may be those of a salt).

By melting point is commonly meant the temperature, or range, at which the solid turns liquid. On to `CN1C(=O)N(CC(COc2ccc(-c3ccc(C#N)cc3)cc2)N(O)C=O)C(=O)C1(C)C` (centres undefined), for which the melting point was in the range of 65 to 67 °C.

As to `O=S(=O)(NC1CCOCC1)c1ccc(Cl)cc1`, the melting point lay in the range of 127 to 129 °C.

With `OCc1cc2c(Cl)ccc(Br)c2s1`, the melting point was 141 to 143 °C.

For `Cn1c2ccc(Cl)cc2c(=O)n2nc(C(N)=O)cc12`, the melting point is more than 360 °C.

Molecule `COc1cc2ncnc(N3CCN(C(=O)Nc4ccc(CC(C)C)cc4)CC3)c2cc1OC` registered a melting point of 215 to 217 °C.

`Cc1ccc(S(=O)(=O)ON=C2CCOc3cc(Cl)c(Cl)cc32)cc1` displayed a melting point of 180 to 184 °C.

`COc1ccc2c(c1)OCCC(C(=O)N1CCN(C(=O)c3cc(OC)c(OC)c(OC)c3)CC1)=C2` registered a melting point of 133 to 135 °C.

As for `Cc1cc(-c2ccc(F)cc2F)n(-c2ccc(S(N)(=O)=O)cc2)c1`, the melting point lay within 170 to 172 °C.

`C#CCN1CCC=C(c2ccc(C(C)(C)CCCCCC)cc2O)C1` yielded a melting point of 116 to 117 °C.

Molecule `Cc1c(S(=O)(=O)c2ccccc2)cc(C(C)(C)C)c(O)c1C(=O)Nc1ccc([N+](=O)[O-])cc1Cl` registered a melting point of 202 to 204 °C.

`CC(=O)CCCCc1ccc(-c2ccccc2F)cc1` came in with a melting point of 37 to 38 °C.

Take `COc1ccc(CN2C(=O)C(O)(c3cc(CN(C)C)ccc3OC)c3cc(Cl)ccc32)c(OC)c1` (centres undefined): the melting point turned out to be 189 °C.

Take `N=C(NC=Cc1ccc([N+](=O)[O-])cc1)c1cccc([N+](=O)[O-])c1`: the melting point lay in the range of 152 to 155 °C.

In turn, `CCOC(=O)C1=C(C)NC(COC(C)=O)=C(C(=O)OCC)C1c1ccc(OC)cc1` (centres undefined) displayed a melting point of 89 to 90 °C.

The molecule `CCc1c(CCNC(=O)C(F)(F)F)ccc(OC)c1OC` yielded a melting point of 80 to 81 °C.

In the case of `O=C(c1ccccc1)C(O)c1ccc(Cl)c(Cl)c1` (centres undefined), the melting point was 204 to 209 °C.

For `O=C(O)c1cn(-c2ccc(F)cc2F)c2c(F)c(N3Cc4ccc(Cl)cc4C3)c(F)cc2c1=O`, the melting point fell in the range of 242 to 247 °C.

In turn, `CC(=O)/C=C/Sc1ccc2ccccc2c1` yielded a melting point of 62 to 64 °C.

Turning to `CSc1cc(C(C)(C)C)nn1C(=O)N(C)C`, the melting point was in the range of 56 to 58 °C.

On to `CC1=C(C)C(O)N(c2nc3ccc(OC(F)(F)F)cc3s2)C1=O` (centres undefined), for which the melting point was 228 to 231 °C.

In the case of `CC(O)(CC(=O)O)c1ccc(-c2ccc(Cl)c(Cl)c2)cc1` (centres undefined), the melting point lay within 124 to 126 °C.

As for `CC(C)CCN1N=C(c2ccc(F)cc2)c2cc(Cl)ccc2CS1(=O)=O`, the melting point was 123 to 124 °C.

In turn, `Cc1ccc(C)n1N(C)c1ccc(Cl)nn1` registered a melting point of 93 to 94.5 °C.

`O=C(O)CNC(=O)Nc1ccc([N+](=O)[O-])cc1` showed a melting point of 213 to 214 °C.

As to `COc1ccc(CCCOc2ccc(C(=O)O)cc2)cc1OC`, the melting point is 150 to 154 °C.

For `CC(c1ccc(Cl)cc1)N1CCNC1=NC(N)=S` (centres undefined), the melting point stood at 107 °C.

In the case of `BrCCCCCCOc1nc(-c2ccccc2)c(-c2ccccc2)n1-c1ccccc1`, the melting point was 87 to 89 °C.

Turning to `O=C1c2ccccc2SCN1CCO[N+](=O)[O-]`, the melting point lay in the range of 68 to 69 °C.

With `O=C(O)c1cccc(-c2cccc3oc(Cc4cccc(C(F)(F)F)c4)cc23)c1`, the melting point fell in the range of 138 to 139 °C.

Consider `Cn1nnnc1-c1cn(C)c2cc(Cl)c(F)cc2c1=O`, for which the melting point was in the range of 264 to 267 °C.

`CCON=C(CC)C1=C(O)CC(c2ccc(Oc3ccc(S(C)(=O)=O)cc3)cc2)CC1=O` (centres undefined) gave a melting point of 155 to 157 °C.

`COc1cccc(-n2ccc(=O)c(-c3ccnn3-c3ccccc3)n2)c1` yielded a melting point of 110 to 111 °C.

For the molecule `FC(F)(F)c1ccc(-c2ccc3[nH]c4c(ccc5cc[nH]c54)c3c2)cc1`, the melting point was more than 250 °C.

In the case of `CCCCCCc1cc(C(=O)O)c(N)s1`, the melting point is 80 to 81 °C.

The molecule `C=CCc1nc(Cl)nc(Cl)c1OC` had a melting point of 61 to 62 °C.

`COc1cc(Nc2nccc(-c3ccc(N4CCCCC4CO)nc3)n2)cc(OC)c1OC` (centres undefined) displayed a melting point of 93 °C.

On to `COc1ccccc1N1CCN(CCCCCC(=O)N2Cc3ccccc3C2)CC1`, for which the melting point is 100 °C.

Regarding `COc1ccc(C(=O)NNC(=O)c2occ(-c3ccccc3)c2-c2ccccc2)cc1NS(C)(=O)=O`, the melting point lay within 180 to 182 °C.

As to `CCN(c1ccc([N+](=O)[O-])cc1C#N)S(=O)(=O)c1ccc(C)cc1`, the melting point was in the range of 135 to 136 °C.

`CCCCc1nc2cccc(C(=O)OC)c2n1Cc1ccc(-c2ccccc2N)cc1` yielded a melting point of 97 to 99 °C.

The molecule `O=C(CCc1ccc(NC2=NCCN2)cc1)c1ccc(N2CCOCC2)cc1F` had a melting point of 168 to 171 °C.

As to `CC(=O)Oc1ccc(-n2nc(C(F)(F)F)cc2-c2ccc(S(C)(=O)=O)cc2)cc1`, the melting point was in the range of 142 to 145 °C.

Take `COC(=O)Cc1ccc(OCCNC(=O)C2Cc3ccccc3N2S(=O)(=O)c2ccc(-c3cc(C(F)(F)F)ccc3Cl)cc2)c(F)c1` (centres undefined): the melting point lay in the range of 56 to 62 °C.

Consider `COc1ccc2c(c1)NC(=O)c1ccccc1O2`, for which the melting point lay in the range of 164 to 165 °C.

On to `CC(CNC(=O)C=CC=Cc1ccccc1)C(=O)NO` (centres undefined), for which the melting point fell in the range of 178 to 179 °C.

Take `CC(C)(C)OC(=O)CC[C@H](NC(=O)c1ccc(NCCc2ccccc2)cc1F)C(=O)OC(C)(C)C`: the melting point lay in the range of 71 to 72 °C.

Molecule `O=CNc1nc(C(=NOCC(=O)OC(c2ccccc2)c2ccccc2)C(=O)O)cs1` had a melting point of 143 to 151 °C.

`CC(=O)NCC(C)(C)c1ccc2nc(C)[nH]c2c1` registered a melting point of 198 to 201 °C.

In turn, `CC(C)(C)c1cc(SCC(=O)N2CCN(c3ccc(NC(=N)c4cccs4)cc3)CC2)cc(C(C)(C)C)c1O` had a melting point of 67 to 69 °C.

In turn, `CCCCCCCCCCCCC(Oc1ccc2c(c1)OCO2)C(=O)O` (centres undefined) showed a melting point of 70 to 72 °C.

`CCOC(=O)Cc1ccc2c(c1)C(c1ccccc1Cl)=NCc1nnc(C)n1-2` showed a melting point of 157 to 158 °C.

In the case of `COc1ccc(C#Cc2cc(C(=O)O)nc(C(=O)O)c2)cc1`, the melting point was more than 300 °C.

Molecule `O=C(C=Cc1ccco1)CCCCCl` displayed a melting point of 50 to 52 °C.

Molecule `CC(C)Cc1ccc(C2(C)Oc3ccc(C(=O)O)cc3O2)cc1` (single isomer, unassigned; (-)) had a melting point of 120 to 122 °C.

`CN1CCN(C(=O)c2ccc(-c3cnc4c(c3)N(Cc3cc(F)ccc3F)CCN4)cc2)CC1` yielded a melting point of 180 °C.

Turning to `ON=C1CC(c2ccccc2)Cc2ccccc21` (centres undefined), the melting point came to 195 °C.

The molecule `CCOC(=O)Nc1ccc2c(c1C=O)OCO2` gave a melting point of 123 °C.

With `C=CCSC(C#N)C1=NCCc2cc(OC)c(OC)cc21` (centres undefined), the melting point lay in the range of 146 to 147 °C.

`Cn1c2c(c3ccc(F)cc31)C(=O)CCC2` showed a melting point of 174 to 175 °C.

The molecule `FC(F)(F)c1ccc2nc[nH]c2c1` came in with a melting point of 89 to 91 °C.

On to `Cc1ccc(C(=S)Nc2cc(F)ccc2F)cc1`, for which the melting point fell in the range of 118 to 121 °C.

Turning to `Cc1ccccc1OCC1NCCS1` (centres undefined), the melting point was in the range of 66 to 68 °C.

`Cc1ccc(C)n1-c1cc2[nH]c(=O)c(=O)n(CC(=O)O)c2cc1Cl` displayed a melting point of more than 265 °C.

In turn, `Cn1c(C(F)(F)F)cc(=O)n(-c2cc(OCc3cccc(F)c3)c(Cl)cc2F)c1=O` yielded a melting point of 135 to 137 °C.

The molecule `CCOc1ccc(-c2ccc3c(c2)C=C(C(=O)Nc2ccc(CN(C)C4CCOCC4)cc2)CCN3C=O)cc1` came in with a melting point of 211 to 215 °C.

`COC1(OC)SC=C(C)NC1=O` yielded a melting point of 86 to 88 °C.

In the case of `O=C(O)c1cccc2c1sc1ccccc12`, the melting point was in the range of 253 to 255 °C.

In turn, `CC#CCOc1ccc(S(=O)[C@@H](C(=O)NO)c2ccc(OC)cc2)cc1` (some centres undefined) yielded a melting point of 134 °C.

On to `COC(=O)c1cc(N(C)C(C)=O)c(Cl)c(N(C)C(C)=O)c1`, for which the melting point lay in the range of 162 to 164 °C.

`CSc1nc2cc(Cl)ccc2n1C1CCN(CCCn2c(=O)[nH]c3ccccc32)CC1` yielded a melting point of 196 °C.

Regarding `CNc1nc(Nc2ccc(Cl)c(Cl)c2)ncc1N1CCNC1=O`, the melting point is 271 °C.

Regarding `Cc1[nH]n(Cc2cccc(C(N)=O)c2)c2nc(-c3ccncc3)nc(=O)c1-2`, the melting point is more than 300 °C.

`NC1=NCC(COc2ccccc2F)O1` (centres undefined) displayed a melting point of 124 °C.

In turn, `COC(=O)CN1C(=S)CN=C(c2ccccc2Cl)c2cc(Cl)ccc21` yielded a melting point of 191 to 192 °C.

As to `COc1ccc(COc2cccnc2NC(=S)Nc2ccccc2)cc1`, the melting point was in the range of 123 to 125 °C.

Regarding `O=[N+]([O-])c1c(Cl)cc(Cl)cc1CO`, the melting point was 133 to 134 °C.

As for `Nc1ccc2ccc(OCc3ccc4ccccc4n3)cc2c1`, the melting point fell in the range of 164 to 166 °C.

With `CCOC(=O)CCc1ccc(C(=O)Cc2ccccc2)cc1`, the melting point lay within 50.5 to 52.5 °C.

Molecule `CCn1c(=O)c2[nH]c(-c3ccc(S(=O)(=O)O)cc3)nc2n(CC)c1=O` gave a melting point of more than 360 °C.

On to `CC(=NNC(=N)N)c1sc(-c2ccc(C3=CCCCC3)cc2)nc1C`, for which the melting point was in the range of 213 to 215 °C.

On to `O=C1Nc2cc(Cl)ccc2C(=O)C1c1csc2ccccc12` (centres undefined), for which the melting point worked out at 320 °C.

The molecule `Cc1csc(NC(=O)c2cn(-c3ccccc3)c3ccccc3c2=O)n1` gave a melting point of 252 to 254 °C.

As for `COc1cc(C)c(N2C(=O)CS/C2=N/N=C\c2ccc(-c3ncn(-c4ccc(OC(F)(F)F)cc4)n3)cc2)c(C)c1`, the melting point is 188 to 190 °C.

For `CN1C(=O)C(Cc2c[nH]c3c(Cl)cc(S(C)(=O)=O)cc23)NC1=S` (centres undefined), the melting point was in the range of 242 to 245 °C.

Regarding `CCOC(=O)c1ncn(-c2nncs2)c1S(N)(=O)=O`, the melting point fell in the range of 168 to 171 °C.

With `CCCCCCCCCCCCCCCCNc1ccc(O)c2c1C(=O)c1c(N)ccc(N)c1C2=O`, the melting point is 174 °C.

With `O=C(COc1cccc(-n2nc(-c3ccc(F)cc3)c3cccnc32)c1)NCCO`, the melting point fell in the range of 161 to 163 °C.

As for `CC(=O)OCCc1ccccc1S(N)(=O)=O`, the melting point is 116 to 118 °C.

`NC(=O)N(O)Cc1ccc(-c2ccccc2)s1` came in with a melting point of 174 °C.
